Blank lines part the entries; values can stand above or below the molecule they belong to.
Key:
Assay in all cases: Competitive isoTOP-ABPP in situ (fragment-treated cells)
Type in all cases: cell-based
[1] = molecular target: cysteines in MDA-MB-231 and Ramos cells (Homo sapiens, UniProt Q9Y696)
[2] = molecular target: T1, cysteines in MDA-MB-231 and Ramos cells (Homo sapiens, UniProt P46734)
T1 sequence (P46734 1-347): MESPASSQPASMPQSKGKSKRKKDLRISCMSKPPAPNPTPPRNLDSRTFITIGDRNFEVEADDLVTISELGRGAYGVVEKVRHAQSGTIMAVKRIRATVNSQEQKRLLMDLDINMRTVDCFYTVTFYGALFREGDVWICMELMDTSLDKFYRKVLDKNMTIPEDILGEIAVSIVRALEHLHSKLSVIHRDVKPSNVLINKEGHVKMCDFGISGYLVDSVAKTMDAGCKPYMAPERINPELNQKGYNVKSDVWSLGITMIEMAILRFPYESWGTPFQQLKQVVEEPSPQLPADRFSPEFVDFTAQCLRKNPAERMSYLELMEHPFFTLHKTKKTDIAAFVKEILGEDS

[3] = molecular target: T2, cysteines in MDA-MB-231 and Ramos cells (Homo sapiens, UniProt P30101)
T2 sequence (P30101 25-505): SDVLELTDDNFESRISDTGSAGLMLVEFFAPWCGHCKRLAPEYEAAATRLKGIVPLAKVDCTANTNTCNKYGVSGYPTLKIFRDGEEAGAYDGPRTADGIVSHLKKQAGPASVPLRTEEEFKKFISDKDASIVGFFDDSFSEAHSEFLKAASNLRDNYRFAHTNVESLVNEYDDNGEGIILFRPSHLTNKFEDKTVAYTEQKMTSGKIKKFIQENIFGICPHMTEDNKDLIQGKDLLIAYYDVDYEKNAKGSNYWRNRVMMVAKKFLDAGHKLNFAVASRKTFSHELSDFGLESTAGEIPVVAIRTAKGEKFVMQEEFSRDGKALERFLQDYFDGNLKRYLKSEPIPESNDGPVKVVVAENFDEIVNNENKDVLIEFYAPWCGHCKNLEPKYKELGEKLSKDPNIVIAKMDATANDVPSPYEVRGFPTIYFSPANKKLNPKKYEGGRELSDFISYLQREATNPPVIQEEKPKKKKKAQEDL

[4] = molecular target: T3, cysteines in MDA-MB-231 and Ramos cells (Homo sapiens, UniProt Q96HE7)
T3 sequence (Q96HE7 24-468): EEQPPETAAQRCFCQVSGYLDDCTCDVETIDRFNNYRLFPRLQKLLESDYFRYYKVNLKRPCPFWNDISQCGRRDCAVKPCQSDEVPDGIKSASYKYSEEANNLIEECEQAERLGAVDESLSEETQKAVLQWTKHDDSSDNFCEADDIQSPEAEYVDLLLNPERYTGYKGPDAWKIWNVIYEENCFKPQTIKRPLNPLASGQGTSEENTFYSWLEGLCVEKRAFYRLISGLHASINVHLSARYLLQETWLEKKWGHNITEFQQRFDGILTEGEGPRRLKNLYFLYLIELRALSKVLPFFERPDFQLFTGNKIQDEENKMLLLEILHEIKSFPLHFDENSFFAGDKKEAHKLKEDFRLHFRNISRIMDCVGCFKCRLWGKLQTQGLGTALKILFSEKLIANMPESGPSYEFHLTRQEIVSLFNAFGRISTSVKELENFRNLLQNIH

[5] = molecular target: T4, cysteines in MDA-MB-231 and Ramos cells (Homo sapiens, UniProt Q9BRA2)
T4 sequence (Q9BRA2 1-123): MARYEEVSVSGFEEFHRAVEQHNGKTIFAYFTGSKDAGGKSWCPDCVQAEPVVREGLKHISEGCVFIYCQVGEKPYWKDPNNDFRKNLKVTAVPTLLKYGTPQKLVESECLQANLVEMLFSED

[6] = molecular target: T5, cysteines in MDA-MB-231 and Ramos cells (Homo sapiens, UniProt O15294)
T5 sequence (O15294 1-1046): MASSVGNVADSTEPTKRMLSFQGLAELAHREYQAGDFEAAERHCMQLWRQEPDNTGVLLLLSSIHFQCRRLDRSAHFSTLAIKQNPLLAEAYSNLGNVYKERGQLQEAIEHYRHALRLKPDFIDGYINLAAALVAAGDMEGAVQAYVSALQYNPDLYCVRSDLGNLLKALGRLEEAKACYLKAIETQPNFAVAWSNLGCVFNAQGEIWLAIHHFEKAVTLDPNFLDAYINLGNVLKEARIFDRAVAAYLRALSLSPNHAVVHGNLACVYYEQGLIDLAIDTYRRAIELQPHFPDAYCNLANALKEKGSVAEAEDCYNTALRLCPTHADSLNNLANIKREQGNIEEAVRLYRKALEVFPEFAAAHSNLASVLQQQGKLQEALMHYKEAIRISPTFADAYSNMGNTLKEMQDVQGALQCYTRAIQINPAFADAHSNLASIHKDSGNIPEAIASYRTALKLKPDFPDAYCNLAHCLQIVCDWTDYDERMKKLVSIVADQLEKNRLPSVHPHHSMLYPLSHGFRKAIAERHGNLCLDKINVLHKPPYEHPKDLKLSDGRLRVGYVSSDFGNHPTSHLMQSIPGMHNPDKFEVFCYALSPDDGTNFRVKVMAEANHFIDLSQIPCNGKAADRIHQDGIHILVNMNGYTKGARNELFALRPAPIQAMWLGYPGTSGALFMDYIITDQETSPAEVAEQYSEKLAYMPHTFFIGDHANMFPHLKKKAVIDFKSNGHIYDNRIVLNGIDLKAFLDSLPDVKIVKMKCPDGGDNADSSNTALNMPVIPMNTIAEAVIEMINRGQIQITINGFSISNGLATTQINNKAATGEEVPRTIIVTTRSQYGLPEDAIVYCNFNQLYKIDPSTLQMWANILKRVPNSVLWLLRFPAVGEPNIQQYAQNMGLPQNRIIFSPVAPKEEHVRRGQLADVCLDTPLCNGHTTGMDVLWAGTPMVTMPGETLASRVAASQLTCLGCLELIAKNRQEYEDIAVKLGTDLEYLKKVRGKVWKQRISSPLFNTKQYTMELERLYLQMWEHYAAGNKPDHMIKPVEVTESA

cysteines in MDA-MB-231 and Ramos cells (Homo sapiens, UniProt Q9Y696), sequence (Q9Y696 whole entry): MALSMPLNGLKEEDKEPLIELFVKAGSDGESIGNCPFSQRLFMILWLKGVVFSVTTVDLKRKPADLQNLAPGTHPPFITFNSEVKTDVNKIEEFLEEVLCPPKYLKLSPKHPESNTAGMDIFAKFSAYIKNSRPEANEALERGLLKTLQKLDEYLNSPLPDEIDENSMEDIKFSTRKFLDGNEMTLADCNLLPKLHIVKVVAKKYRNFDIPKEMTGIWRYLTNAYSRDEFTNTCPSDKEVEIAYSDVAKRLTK

- isoTOP-ABPP reactivity Q9Y696_C35 CLIC4 ([1]; 200 μM, insitu, 231): 1.7
- isoTOP-ABPP reactivity P46734_C207 MAP2K3 ([2]; 200 μM, insitu, 231): 0.8
- isoTOP-ABPP reactivity P30101_057 PDIA3 ([3]; 200 μM, insitu, 231): 2.2
- isoTOP-ABPP reactivity P30101_C406 PDIA3 ([3]; 200 μM, insitu, 231): 3.2
- isoTOP-ABPP reactivity Q96HE7_C241 ERO1L ([4]; 200 μM, insitu, 231): 2.4
- isoTOP-ABPP reactivity Q9BRA2_C43 TXNDC17 ([5]; 200 μM, insitu, 231): 15.5
- isoTOP-ABPP reactivity 015294_C758 OGT ([6]; 200 μM, insitu, 231): 2.6
Structure (SMILES): COc1ccc2c(c1)CCCN2C(=O)CCl [compound 2]

- isoTOP-ABPP reactivity Q9Y696_C35 CLIC4 ([1]; 100 μM in situ 231): 20.0
- isoTOP-ABPP reactivity P46734_C207 MAP2K3 ([2]; 100 μM in situ 231): 0.6
- isoTOP-ABPP reactivity P30101_057 PDIA3 ([3]; 100 μM in situ 231): 20.0
- isoTOP-ABPP reactivity P30101_C406 PDIA3 ([3]; 100 μM in situ 231): 9.0
- isoTOP-ABPP reactivity Q96HE7_C37 ERO1L ([4]; 100 μM in situ 231): 5.4
- isoTOP-ABPP reactivity Q96HE7_C241 ERO1L ([4]; 100 μM in situ 231): 3.0
- isoTOP-ABPP reactivity Q9BRA2_C43 TXNDC17 ([5]; 100 μM in situ 231): 3.5
- isoTOP-ABPP reactivity 015294_C758 OGT ([6]; 100 μM in situ 231): 6.4
- isoTOP-ABPP reactivity O15294_C620 OGT ([6]; 100 μM in situ 231): 20.0
Structure (SMILES): COc1ccc(C2CC(c3cccs3)=NN2C(=O)CCl)cc1 (stereo not drawn) [compound 4]

- isoTOP-ABPP reactivity Q9Y696_C35 CLIC4 ([1]; 200 μM, insitu, 231): 4.7
- isoTOP-ABPP reactivity P46734_C207 MAP2K3 ([2]; 200 μM, insitu, 231): 0.8
- isoTOP-ABPP reactivity P30101_057 PDIA3 ([3]; 200 μM, insitu, 231): 20.0
- isoTOP-ABPP reactivity P30101_C406 PDIA3 ([3]; 200 μM, insitu, 231): 20.0
- isoTOP-ABPP reactivity Q96HE7_C241 ERO1L ([4]; 200 μM, insitu, 231): 3.7
- isoTOP-ABPP reactivity Q9BRA2_C43 TXNDC17 ([5]; 200 μM, insitu, 231): 20.0
- isoTOP-ABPP reactivity 015294_C758 OGT ([6]; 200 μM, insitu, 231): 2.4
Structure (SMILES): COc1cc2c(cc1OC)CN(C(=O)CCl)CC2 [compound 8]

- isoTOP-ABPP reactivity Q9Y696_C35 CLIC4 ([1]; 200 μM, insitu, 231): 2.6
- isoTOP-ABPP reactivity P46734_C207 MAP2K3 ([2]; 200 μM, insitu, 231): 3.3
- isoTOP-ABPP reactivity P30101_C406 PDIA3 ([3]; 200 μM, insitu, 231): 1.4
- isoTOP-ABPP reactivity Q96HE7_C37 ERO1L ([4]; 200 μM, insitu, 231): 20.0
- isoTOP-ABPP reactivity Q9BRA2_C43 TXNDC17 ([5]; 200 μM, insitu, 231): 20.0
- isoTOP-ABPP reactivity 015294_C758 OGT ([6]; 200 μM, insitu, 231): 2.1
Structure (SMILES): O=C(CCl)N1CCC(Cc2ccccc2)CC1 [compound 9]

- isoTOP-ABPP ratio Q9Y696_C35 ([1]; 200 μM, insitu, 231): 2.7
- isoTOP-ABPP ratio Q9Y696_C35 ([1]; 200 μM, insitu, ramos): 1.6
- isoTOP-ABPP ratio P46734_C207 ([2]; 200 μM, insitu, 231): 0.8
- isoTOP-ABPP ratio P30101_C57 ([3]; 200 μM, insitu, 231): 3.3
- isoTOP-ABPP ratio P30101_C406 ([3]; 200 μM, insitu, 231): 3.3
- isoTOP-ABPP ratio P30101_C406 ([3]; 200 μM, insitu, ramos): 1.4
- isoTOP-ABPP ratio Q96HE7_C241 ([4]; 200 μM, insitu, 231): 2.0
- isoTOP-ABPP ratio Q9BRA2_C43 ([5]; 200 μM, insitu, 231): 20.0
- isoTOP-ABPP ratio O15294_C758 ([6]; 200 μM, insitu, 231): 2.3
- isoTOP-ABPP ratio, cysteine O15294_C620 ([6]; 200 μM, insitu, ramos): 12 .0
Structure (SMILES): O=C(CCl)N1CCN(S(=O)(=O)c2ccccc2F)CC1 [compound 10]

- isoTOP-ABPP ratio Q9Y696_C35 ([1]; 100 μM in situ 231): 1.9
- isoTOP-ABPP ratio P46734_C207 ([2]; 100 μM in situ 231): 0.6
- isoTOP-ABPP ratio P30101_C57 ([3]; 100 μM in situ 231): 2.2
- isoTOP-ABPP ratio Q96HE7_C241 ([4]; 100 μM in situ 231): 1.8
- isoTOP-ABPP ratio Q9BRA2_C43 ([5]; 100 μM in situ 231): 17.7
- isoTOP-ABPP ratio O15294_C758 ([6]; 100 μM in situ 231): 1.0
Structure (SMILES): Cn1cc(S(=O)(=O)N2CCOCC2)cc1C(=O)NC(=O)CCl [compound 11]

- isoTOP-ABPP ratio Q9Y696_C35 ([1]; 200 μM, insitu, 231): 20.0
- isoTOP-ABPP ratio P46734_C207 ([2]; 200 μM, insitu, 231): 0.7
- isoTOP-ABPP ratio P30101_C57 ([3]; 200 μM, insitu, 231): 20.0
- isoTOP-ABPP ratio P30101_C406 ([3]; 200 μM, insitu, 231): 20.0
- isoTOP-ABPP ratio Q96HE7_C241 ([4]; 200 μM, insitu, 231): 16.4
- isoTOP-ABPP ratio Q9BRA2_C43 ([5]; 200 μM, insitu, 231): 20.0
- isoTOP-ABPP ratio O15294_C758 ([6]; 200 μM, insitu, 231): 20.0
Structure (SMILES): O=C(CCl)NC(=O)NC12CC3CC(CC(C3)C1)C2 [compound 12]

- isoTOP-ABPP ratio Q9Y696_C35 ([1]; 200 μM, insitu, 231): 2.3
- isoTOP-ABPP ratio Q9Y696_C35 ([1]; 200 μM, insitu, ramos): 3.2
- isoTOP-ABPP ratio P46734_C207 ([2]; 200 μM, insitu, 231): 0.8
- isoTOP-ABPP ratio P30101_C57 ([3]; 200 μM, insitu, ramos): 1.6
- isoTOP-ABPP ratio P30101_C406 ([3]; 200 μM, insitu, ramos): 2.0
- isoTOP-ABPP ratio Q96HE7_C241 ([4]; 200 μM, insitu, 231): 1.5
- isoTOP-ABPP ratio Q96HE7_C241 ([4]; 200 μM, insitu, ramos): 1.3
- isoTOP-ABPP ratio, cysteine Q96HE7_C37 ([4]; 200 μM, insitu, ramos): 1.4
- isoTOP-ABPP ratio Q9BRA2_C43 ([5]; 200 μM, insitu, 231): 20.0
- isoTOP-ABPP ratio Q9BRA2_C43 ([5]; 200 μM, insitu, ramos): 5.2
- isoTOP-ABPP ratio O15294_C758 ([6]; 200 μM, insitu, 231): 1.0
Structure (SMILES): O=C(CCl)NCCc1c[nH]c2ccccc12 [compound 13]
